Reference: PubChem BioAssay AID180 (DTP/NCI, 2004)
Where “and” joins values, the source holds several entries; their conditions need not be identical. Equal values may be shown once.

Tested on: BDF1 mice, Adenocarcinoma 755 s.c., tumor weight T/C
Experiment: NCI In Vivo Anticancer Drug Screen. Data for tumor model Adenocarcinoma 755 (subcutaneous) in B6D2F1 (BDF1) mice
Details: endpoint: mean tumor weight, higher = larger tumour
Outline: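 Values express treated (T) relative to vehicle-dosed control (C) animals, based on survival or tumour size measured after compound treatment of mice bearing a transplanted tumour.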

[1] = dose: 80.0 mg/kg/injection, schedule: Q01DX011 (ip), vehicle: methylcellulose (MC)
[2] = dose: 300.0 mg/kg/injection, schedule: Q01DX011 (ip), vehicle: carboxymethylcellulose (CMC)
[3] = dose: 500.0 mg/kg/injection, schedule: Q01DX011 (ip), vehicle: carboxymethylcellulose (CMC)
[4] = dose: 50.0 mg/kg/injection, schedule: Q01DX011 (ip), vehicle: carboxymethylcellulose (CMC)
[5] = dose: 125.0 mg/kg/injection, schedule: Q01DX011 (ip), vehicle: carboxymethylcellulose (CMC)
[6] = dose: 250.0 mg/kg/injection, schedule: Q01DX011 (ip), vehicle: carboxymethylcellulose (CMC)
[7] = dose: 31.0 mg/kg/injection, schedule: Q01DX011 (ip), vehicle: carboxymethylcellulose (CMC)
[8] = dose: 62.0 mg/kg/injection, schedule: Q01DX011 (ip), vehicle: carboxymethylcellulose (CMC)

NC(=S)n1cccn1
T/C (dose: 20.0 mg/kg/injection, schedule: Q01DX011 (ip), vehicle: methylcellulose (MC)): 91 % of control | T/C (dose: 40.0 mg/kg/injection, schedule: Q01DX011 (ip), vehicle: methylcellulose (MC)): 85 % of control | T/C [1]: 44 % of control | T/C (dose: 160.0 mg/kg/injection, schedule: Q01DX011 (ip), vehicle: methylcellulose (MC)): 8 % of control

O=C(N[C@H](CO)[C@H](O)c1ccc([N+](=O)[O-])cc1)C(Cl)Cl
T/C (dose: 71.73 mg/kg/injection, schedule: Q01DX011 (ip), vehicle: carboxymethylcellulose (CMC)): 88 % of control | T/C (dose: 73.63 mg/kg/injection, schedule: Q01DX011 (ip), vehicle: carboxymethylcellulose (CMC)): 103 % of control and 106 % of control | T/C (dose: 95.85 mg/kg/injection, schedule: Q01DX011 (ip), vehicle: carboxymethylcellulose (CMC)): 95 % of control | T/C (dose: 143.47 mg/kg/injection, schedule: Q01DX011 (ip), vehicle: carboxymethylcellulose (CMC)): 104 % of control | T/C (dose: 147.25 mg/kg/injection, schedule: Q01DX011 (ip), vehicle: carboxymethylcellulose (CMC)): 71 % of control | T/C (dose: 187.5 mg/kg/injection, schedule: Q01DX011 (ip), vehicle: methylcellulose (MC)): 70 % of control | T/C (dose: 191.7 mg/kg/injection, schedule: Q01DX011 (ip), vehicle: carboxymethylcellulose (CMC)): 156 % of control | T/C (dose: 286.95 mg/kg/injection, schedule: Q01DX011 (ip), vehicle: carboxymethylcellulose (CMC)): 115 % of control | T/C (dose: 294.5 mg/kg/injection, schedule: Q01DX011 (ip), vehicle: carboxymethylcellulose (CMC)): 65 % of control | T/C [2]: 104 % of control | T/C (dose: 375.0 mg/kg/injection, schedule: Q01DX011 (ip), vehicle: methylcellulose (MC)): 62 % of control | T/C [3]: 69 % of control | T/C (dose: 750.0 mg/kg/injection, schedule: Q01DX011 (ip), vehicle: methylcellulose (MC)): 99 % of control

CCOc1ccccc1Nc1cc(Cl)nc(N)n1
T/C (dose: 15.0 mg/kg/injection, schedule: Q01DX011 (ip), vehicle: methylcellulose (MC)): 96 % of control | T/C (dose: 31.0 mg/kg/injection, schedule: Q01DX011 (ip), vehicle: methylcellulose (MC)): 66 % of control | T/C (dose: 62.0 mg/kg/injection, schedule: Q01DX011 (ip), vehicle: methylcellulose (MC)): 70 % of control | T/C (dose: 125.0 mg/kg/injection, schedule: Q01DX011 (ip), vehicle: methylcellulose (MC)): 95 % of control | T/C (dose: 250.0 mg/kg/injection, schedule: Q01DX011 (ip), vehicle: methylcellulose (MC)): 70 % of control

CC(=O)O[C@]1(C(C)=O)CC[C@H]2[C@@H]3C[C@H](C)C4=CC(=O)CC[C@]4(C)[C@H]3CC[C@@]21C
T/C (dose: 100.0 mg/kg/injection, schedule: Q01DX011 (sc), vehicle: steriod suspending solution): 89 % of control | T/C (dose: 300.0 mg/kg/injection, schedule: Q01DX011 (sc), vehicle: steriod suspending solution): 78 % of control

CCN(CC)CCCC(C)Nc1c2ccc(Cl)cc2nc2ccc(OC)cc12 (stereo not drawn)
T/C (dose: 25.0 mg/kg/injection, schedule: Q01DX011 (ip), vehicle: carboxymethylcellulose (CMC)): 68 % of control | T/C [4]: 62 % of control | T/C (dose: 100.0 mg/kg/injection, schedule: Q01DX011 (ip), vehicle: carboxymethylcellulose (CMC)): 52 % of control

CN(Cc1cnc2nc(NCNC(=O)C3=C(O)[C@@]4(O)C(=O)C5=C(O)c6c(O)cccc6[C@@](C)(O)[C@H]5C[C@H]4[C@H](N(C)C)C3=O)nc(N)c2n1)c1ccc(C(=O)NC(CCC(=O)O)C(=O)O)cc1 (stereo partly drawn)
T/C (dose: 1.5 mg/kg/injection, schedule: Q01DX011 (ip), vehicle: saline): 109 % of control | T/C (dose: 3.0 mg/kg/injection, schedule: Q01DX011 (ip), vehicle: saline): 103 % of control | T/C (dose: 6.0 mg/kg/injection, schedule: Q01DX011 (ip), vehicle: saline): 69 % of control

CCC1=C(c2cc(Cl)c3ccccc3c2OCC(=O)O)OC(CC)(C(=O)c2cc(Cl)c3ccccc3c2OCC(=O)O)CC1 (stereo not drawn)
T/C (dose: 30.0 mg/kg/injection, schedule: Q01DX011 (ip), vehicle: alkali diluted with saline): 152 % of control

c1ccn(-c2nc(-n3cccc3)nc(-n3cccc3)n2)c1
T/C (dose: 31.25 mg/kg/injection, schedule: Q01DX011 (ip), vehicle: carboxymethylcellulose (CMC)): 72 % of control | T/C (dose: 62.5 mg/kg/injection, schedule: Q01DX011 (ip), vehicle: carboxymethylcellulose (CMC)): 86 % of control | T/C [5]: 73 % of control | T/C [6]: 17 % of control and 38 % of control

COC(C(O)C(O)C(O)C(O)CO)n1cnc2cncnc21 (stereo not drawn)
T/C (dose: 19.0 mg/kg/injection, schedule: Q01DX011 (ip), vehicle: carboxymethylcellulose (CMC)): 115 % of control | T/C (dose: 57.0 mg/kg/injection, schedule: Q01DX011 (ip), vehicle: carboxymethylcellulose (CMC)): 152 % of control

CCCCn1cnc2c(SSc3ncnc4c3ncn4CCCC)ncnc21
T/C (dose: 0.5 mg/kg/injection, schedule: Q01DX011 (ip), vehicle: carboxymethylcellulose (CMC)): 94 % of control | T/C (dose: 1.0 mg/kg/injection, schedule: Q01DX011 (ip), vehicle: carboxymethylcellulose (CMC)): 104 % of control | T/C (dose: 2.0 mg/kg/injection, schedule: Q01DX011 (ip), vehicle: carboxymethylcellulose (CMC)): 101 % of control | T/C (dose: 4.0 mg/kg/injection, schedule: Q01DX011 (ip), vehicle: carboxymethylcellulose (CMC)): 77 % of control | T/C (dose: 7.5 mg/kg/injection, schedule: Q01DX011 (ip), vehicle: other): 32 % of control | T/C (dose: 8.0 mg/kg/injection, schedule: Q01DX011 (ip), vehicle: carboxymethylcellulose (CMC)): 19 % of control | T/C (dose: 15.0 mg/kg/injection, schedule: Q01DX011 (ip), vehicle: other): 23 % of control | T/C (dose: 16.0 mg/kg/injection, schedule: Q01DX011 (ip), vehicle: carboxymethylcellulose (CMC)): 13 % of control | T/C (dose: 30.0 mg/kg/injection, schedule: Q01DX011 (ip), vehicle: other): 1 % of control | T/C [7]: 6 % of control | T/C [8]: 5 % of control

CC1CCCCN1/N=N/c1nc2c([nH]1)c(=O)n(C)c(=O)n2C (stereo not drawn)
T/C (dose: 25.0 mg/kg/injection, schedule: Q01DX011 (ip), vehicle: methylcellulose (MC)): 59 % of control | T/C (dose: 75.0 mg/kg/injection, schedule: Q01DX011 (ip), vehicle: methylcellulose (MC)): 68 % of control

CN(C)CCCCl
T/C (dose: 25.0 mg/kg/injection, schedule: Q01DX011 (ip), vehicle: other): 81 % of control | T/C (dose: 50.0 mg/kg/injection, schedule: Q01DX011 (ip), vehicle: other): 83 % of control | T/C (dose: 100.0 mg/kg/injection, schedule: Q01DX011 (ip), vehicle: other): 98 % of control

S=C(N=Nc1ccccc1)NNc1ccccc1
T/C [4]: 113 % of control | T/C (dose: 75.0 mg/kg/injection, schedule: Q01DX011 (ip), vehicle: carboxymethylcellulose (CMC)): 152 % of control

O=C1[O][Sb]23[O]C(=O)C([O]2)C(O)C(O)C2[O][Sb]4([O]C(=O)C([O]4)C(O)C(O)C1[O]3)[O]C2=O (stereo not drawn)
T/C [1]: 50 % of control and 55 % of control

S=c1nc[nH]c2c1ncn2C1CC1
T/C [7]: 86 % of control | T/C [8]: 89 % of control | T/C [5]: 86 % of control | T/C [6]: 33 % of control | T/C [3]: 59 % of control

CN1Cc2c(ccc3c2OCO3)[C@@H]2[C@H](O)Cc3cc4c(cc3[C@@H]21)OCO4
T/C (dose: 150.0 mg/kg/injection, schedule: Q01DX011 (ip), vehicle: carboxymethylcellulose (CMC)): 167 % of control | T/C [2]: 51 % of control

COc1ccccc1NC(=O)CSC(N)=O
T/C (dose: 50.0 mg/kg/injection, schedule: Q01DX011 (ip), vehicle: methylcellulose (MC)): 106 % of control | T/C (dose: 400.0 mg/kg/injection, schedule: Q01DX011 (ip), vehicle: carboxymethylcellulose (CMC)): 5 % of control

CC(=O)OCCOc1ccc(C(C)(C)C)cc1
T/C (dose: 57.0 mg/kg/injection, schedule: Q01DX011 (ip), vehicle: methylcellulose (MC)): 57 % of control | T/C (dose: 113.0 mg/kg/injection, schedule: Q01DX011 (ip), vehicle: carboxymethylcellulose (CMC)): 122 % of control | T/C (dose: 113.0 mg/kg/injection, schedule: Q01DX011 (ip), vehicle: methylcellulose (MC)): 83 % of control | T/C (dose: 225.0 mg/kg/injection, schedule: Q01DX011 (ip), vehicle: carboxymethylcellulose (CMC)): 171 % of control | T/C (dose: 225.0 mg/kg/injection, schedule: Q01DX011 (ip), vehicle: methylcellulose (MC)): 47 % of control | T/C (dose: 450.0 mg/kg/injection, schedule: Q01DX011 (ip), vehicle: carboxymethylcellulose (CMC)): 107 % of control | T/C [3]: 70 % of control | T/C (dose: 600.0 mg/kg/injection, schedule: Q01DX011 (ip), vehicle: carboxymethylcellulose (CMC)): 65 % of control
